Measured values published in PMC7539012, “Hyperphosphorylated tau aggregation and cytotoxicity modulators screen identified prescription drugs linked to Alzheimer's disease and cognitive functions” (Scientific Reports, 2020).
Where a name gives a salt, the structure may show the parent alone.
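Throughout, for ThS net change: 30 µM compound with 6 µM p-tau over 16 h.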

The molecules below were run on T1, 1N4R p-tau (assay: p-tau aggregation modulator screen of 1280-compound library (ThS fluorescence net change over 16 h)). Settings: not given.
T1 construct: made in house; host or cells: E. coli (PIMAX system)
Assay type: biochemical
Parameters: key to PTAI>2SD: *: PTAI>2SD; key to PTAI>3SD: *: PTAI>3SD
`CC(C)NC[C@H](O)COc1cccc2ccccc12` [(S)-propranolol hydrochloride] gave a ThS net change of 434. `N[C@@H]1C[C@H]1c1ccccc1` [Tranylcypromine hydrochloride] showed a ThS net change of 377. `COc1cccc2c1C(=O)c1c(O)c3c(c(O)c1C2=O)C[C@@](O)(C(=O)CO)C[C@@H]3O[C@H]1C[C@H](N)[C@H](O)[C@H](C)O1` [Doxorubicin hydrochloride] was tested, and the ThS net change was 249. `Clc1ccc(COC(Cn2ccnc2)c2ccc(Cl)cc2Cl)cc1` (stereo not shown) [Econazole nitrate] showed a ThS net change of 309. Molecule `CCc1c2c(nc3ccc(OC(=O)N4CCC(N5CCCCC5)CC4)cc13)-c1cc3c(c(=O)n1C2)COC(=O)[C@]3(O)CC.Cl.O.O.O` [Irinotecan hydrochloride trihydrate] has a ThS net change of 281. `C[C@@H]1C[C@H]2[C@@H]3C[C@H](F)C4=CC(=O)C=C[C@]4(C)[C@@]3(F)[C@@H](O)C[C@]2(C)[C@@]1(O)C(=O)COC(=O)C(C)(C)C` [Flumethasone pivalate] showed a ThS net change of 476. `CC(=O)O[C@H]1CC[C@@]2(C)C(=CC[C@@H]3[C@@H]2CC[C@]2(C)C(=O)CC[C@@H]32)C1` [Dehydroisoandosterone 3-acetate] gave a ThS net change of 423.

Same assay, conditions: 1280-compound library screen; ThS fluorescence net change over 16 h
`O=C(O)c1cccnc1` [Niacin] gave a ThS net change of 391. `CCS(=O)(=O)CCn1c([N+](=O)[O-])cnc1C` [Tinidazole] showed a ThS net change of 392. Work on `C=CCOc1ccccc1OCC(O)CNC(C)C` (stereo not shown) [Oxprenolol hydrochloride] yielded a ThS net change of 404. With `[H]/N=C(/N)N[C@H]1[C@H](O)[C@@H](O)[C@H](O[C@@H]2O[C@@H](C)[C@](O)(C=O)[C@H]2O[C@@H]2O[C@@H](CO)[C@H](O)[C@@H](O)[C@@H]2NC)[C@@H](N/C(N)=N\[H])[C@@H]1O` [Streptomycin sulfate] the ThS net change was 397. Molecule `COc1cc(C(=O)NC2CCCNC2)cc(OC)c1OC` (stereo not shown) [Troxipide] has a ThS net change of 407. `CCN1CCC[C@H]1CNC(=O)c1c(O)c(Cl)cc(Cl)c1OC` [Raclopride] showed a ThS net change of 382. Molecule `COc1cc(N)c(Cl)cc1C(=O)NC1CCN(Cc2ccccc2)CC1` [Clebopride maleate] has a ThS net change of 406. `C=CCN1CCCC1CNC(=O)c1cc2nn[nH]c2cc1OC.Cl` (stereo not shown) [Alizapride HCl] showed a ThS net change of 383. `C#C[C@]1(O)CC[C@H]2[C@@H]3CCC4=CCCC[C@@H]4[C@H]3CC[C@@]21C` [Lynestrenol] showed a ThS net change of 408. In the case of `Cc1c(Cl)cccc1Nc1ccccc1C(=O)O` [Tolfenamic acid], the ThS net change was 383. With `Cc1noc(NS(=O)(=O)c2ccc(N)cc2)c1C` [Sulfisoxazole] the ThS net change was 404. `C[C@H]1C[C@H]2[C@@H]3CCC4=CC(=O)C=C[C@]4(C)[C@@]3(F)[C@@H](O)C[C@]2(C)[C@@]1(O)C(=O)CO` [Betamethasone] showed a ThS net change of 395. `CCc1ccc(CCOc2ccc(CC3SC(=O)NC3=O)cc2)nc1` (stereo not shown) [Pioglitazone] gave a ThS net change of 410. In the case of `CC(Oc1c(Cl)cccc1Cl)C1=NCCN1` (stereo not shown) [Lofexidine], the ThS net change was 408. `CCCNC(C)C(=O)Nc1ccccc1C` (stereo not shown) [Prilocaine hydrochloride] gave a ThS net change of 378. `CNCCC=C1c2ccccc2CCc2ccccc21` [Nortriptyline hydrochloride] was tested, and the ThS net change was 380. `CCN(CC)CCc1nc(-c2ccccc2)no1.O=C(O)CC(O)(CC(=O)O)C(=O)O` [Oxalamine citrate salt] was tested, and the ThS net change was 410. `NCCc1ccc(O)c(O)c1` [Dopamine hydrochloride] showed a ThS net change of 404.

Same assay, conditions: 1280-compound library screen; […]
Work on `Oc1cc(Cl)ccc1Oc1ccc(Cl)cc1Cl` [Triclosan] yielded a ThS net change of 398. Work on `CN(C)C(=O)Oc1ccc[n+](C)c1.[I-]` [Pyridostigmine iodide] yielded a ThS net change of 381. `CNC(=O)Oc1ccc2c(c1)[C@]1(C)CCN(C)[C@@H]1N2C` [Eserine hemisulfate salt] was tested, and the ThS net change was 395. `CCOc1ccccc1O[C@@H](c1ccccc1)[C@H]1CNCCO1.CS(=O)(=O)O` [Reboxetine mesylate] gave a ThS net change of 386. In the case of `CNC(C)(C)Cc1ccccc1.CNC(C)(C)Cc1ccccc1.O=S(=O)(O)O` [Mephentermine hemisulfate], the ThS net change was 380.

Same assay, conditions: flag: p-tau aggregation inhibitor, ThS net change more than 2 SD from mean
In the case of `CCCCOc1ccc(CC(=O)NO)cc1` [Bufexamac], the “PTAI>2SD” value was “*”.

Same assay, conditions: flag: p-tau aggregation inhibitor, ThS net change more than 3 SD from mean
`CO[C@H]1/C=C/O[C@@]2(C)Oc3c(C)c(O)c4c(O)c(c(/C=N/N5CCN(C6CCCC6)CC5)c(O)c4c3C2=O)NC(=O)/C(C)=C\C=C\[C@H](C)[C@H](O)[C@@H](C)[C@@H](O)[C@@H](C)[C@H](OC(C)=O)[C@@H]1C` [Rifapentine] was tested, and the “PTAI>3SD” value was “*”.

Same assay, conditions: library screen, ThS fluorescence net change over 16 h with p-tau
`COc1ccc(C(=O)CC(=O)c2ccc(C(C)(C)C)cc2)cc1` [Avobenzone] was tested, and the ThS net change was 250. Molecule `CSc1ccc2c(c1)N(CCC1CCCCN1C)c1ccccc1S2` (stereo not shown) [Thioridazine hydrochloride] has a ThS net change of 252. `CCCCOc1ccc(CC(=O)NO)cc1` [Bufexamac] gave a ThS net change of 140. In the case of `CCCCOc1cc(C(=O)OCCN(CC)CC)ccc1N` [Benoxinate hydrochloride], the ThS net change was 312. Work on `CO[C@H]1/C=C/O[C@@]2(C)Oc3c(C)c(O)c4c(O)c(c(/C=N/N5CCN(C6CCCC6)CC5)c(O)c4c3C2=O)NC(=O)/C(C)=C\C=C\[C@H](C)[C@H](O)[C@@H](C)[C@@H](O)[C@@H](C)[C@H](OC(C)=O)[C@@H]1C` [Rifapentine] yielded a ThS net change of 86. `CCN(CC)C(=O)/C(C#N)=C/c1cc(O)c(O)c([N+](=O)[O-])c1` [Entacapone] gave a ThS net change of 199.

Same assay, conditions: p-tau aggregation modulator screen of 1280-compound library; ThS fluorescence net change
Work on `CCC1(c2ccccc2)C(=O)NCNC1=O` [Primidone] yielded a ThS net change of 346. For `CCN(CCCc1ccccc1)CCCc1ccccc1.O=C(O)CC(O)(CC(=O)O)C(=O)O` [Alverine citrate salt], the ThS net change was 374. `CC(=O)N(CC(C)C(=O)O)c1c(I)cc(I)c(N)c1I` (stereo not shown) [Iocetamic acid] gave a ThS net change of 365. `CC(C)NCC(O)COc1cccc2[nH]ccc12` (stereo not shown) [Pindolol] was tested, and the ThS net change was 331. Work on `CCc1cc(C(N)=S)ccn1` [Ethionamide] yielded a ThS net change of 360. `CCN(CC)CCNC(=O)COc1ccc(OC)cc1.Cl` [Mefexamide hydrochloride] gave a ThS net change of 331. In the case of `CC(=O)OC(C)C[N+](C)(C)C` (stereo not shown) [Methacholine chloride], the ThS net change was 370. In the case of `CC(N)CCCC(C)(C)O` (stereo not shown) [Heptaminol hydrochloride], the ThS net change was 362. `CC(C(=O)O)c1ccc(-c2ccccc2)c(F)c1` (stereo not shown) [Flurbiprofen] was tested, and the ThS net change was 377. `CN(C(=O)C(Cl)Cl)c1ccc(OC(=O)c2ccco2)cc1` [Diloxanide furoate] was tested, and the ThS net change was 371. Work on `COc1ccc2c(c1)c(CC(=O)OCC(=O)O)c(C)n2C(=O)c1ccc(Cl)cc1` [Acemetacin] yielded a ThS net change of 349. Molecule `OC(CCCN1CCCCC1)(c1ccccc1)c1ccccc1` [Diphenidol hydrochloride] has a ThS net change of 345. Work on `O=C(O)c1cn(-c2ccc(F)cc2)c2cc(N3CCNCC3)c(F)cc2c1=O` [Sarafloxacin] yielded a ThS net change of 332. `O=c1oc2ccccc2c(O)c1Cc1c(O)c2ccccc2oc1=O` [Dicumarol] was tested, and the ThS net change was 363. `CCCCCCCCNC(C)C(O)c1ccc(SC(C)C)cc1` (stereo not shown) [Suloctidil] gave a ThS net change of 370. `CC(=O)S[C@@H]1CC2=CC(=O)CC[C@]2(C)[C@H]2CC[C@@]3(C)[C@@H](CC[C@@]34CCC(=O)O4)[C@H]12` [Spironolactone] showed a ThS net change of 372. `c1ccc2[nH]c(-c3cscn3)nc2c1` [Tiabendazole] showed a ThS net change of 355. `CC(C)NCC(O)COc1ccc(CC(N)=O)cc1` (stereo in doubt) [(S)-(-)-Atenolol] showed a ThS net change of 363.

Same assay, conditions: p-tau aggregation modulator screen of 1280-compound library; […]
Molecule `Clc1ccc(C(Cn2ccnc2)OCc2csc3c(Cl)cccc23)c(Cl)c1` (stereo not shown) [Sertaconazole nitrate] has a ThS net change of 344. With `CC(C)(C)CC(C)(C)c1ccc(OCCOCC[N+](C)(C)Cc2ccccc2)cc1` [Benzethonium chloride] the ThS net change was 365.

Same assay, conditions: p-tau aggregation modulator screen of the compound library, ThS fluorescence net change
`CN(CCOc1ccc(CC2SC(=O)NC2=O)cc1)c1ccccn1.Cl` (stereo not shown) [Rosiglitazone Hydrochloride] showed a ThS net change of 476. With `C=C1c2cccc(O)c2C(=O)C2=C(O)[C@]3(O)C(=O)C(C(N)=O)=C(O)[C@@H](N(C)C)[C@@H]3[C@@H](O)[C@H]12` [Methacycline hydrochloride] the ThS net change was 537. `CC(C)OC(=O)CCC/C=C\C[C@@H]1[C@@H](CC[C@@H](O)CCc2ccccc2)[C@H](O)C[C@@H]1O` [Latanoprost] gave a ThS net change of 519. With `CN(C)CCCSC(=N)N.Cl.Cl` [Dimaprit dihydrochloride] the ThS net change was 436. For `C[C@]12CC[C@@H]3c4ccc(O)cc4C[C@@H](CCCCCCCCC[S+]([O-])CCCC(F)(F)C(F)(F)F)[C@H]3[C@@H]1CC[C@@H]2O` (stereo partly shown) [Fulvestrant], the ThS net change was 442. For `CCc1cccc(CC)c1NC(=O)CN(CC(=O)O)CC(=O)O` [Etifenin], the ThS net change was 414. Molecule `NC(=O)OCC(COC(N)=O)c1ccccc1` [Felbamate] has a ThS net change of 439. For `CCCCCN(CCCCC)C(=O)C(CCC(=O)[O-])NC(=O)c1ccc(Cl)c(Cl)c1.[Na+]` (stereo not shown) [Lorglumide sodium salt], the ThS net change was 520. `CN(C)CCOC(c1ccc(Cl)cc1)c1ccccn1.O=C(O)/C=C\C(=O)O` (stereo not shown) [Carbinoxamine maleate salt] gave a ThS net change of 427. With `CCOC(=O)C(C)(C)Oc1ccc(Cl)cc1` [Clofibrate] the ThS net change was 461. With `NC(=O)c1ncn([C@@H]2O[C@H](CO)[C@@H](O)[C@H]2O)n1` [Ribavirin] the ThS net change was 458. `CC(C[N+](C)(C)C)OC(N)=O` (stereo not shown) [Bethanechol chloride] was tested, and the ThS net change was 418. Work on `CO/N=C(\C(=O)N[C@@H]1C(=O)N2C(C(=O)OC(C)OC(C)=O)=C(COC(N)=O)CS[C@H]12)c1ccco1` (stereo partly shown) [Cefuroxime axetil] yielded a ThS net change of 445. `CC(C)Oc1ccc2c(=O)c(-c3ccccc3)coc2c1` [Ipriflavone] was tested, and the ThS net change was 429. `C[C@@H]1C[C@H]2[C@@H]3C[C@H](F)C4=CC(=O)C=C[C@]4(C)[C@@]3(Cl)[C@@H](O)C[C@]2(C)[C@H]1C(=O)COC(=O)C(C)(C)C` [Clocortolone pivalate] was tested, and the ThS net change was 414. `CC(C)(C)NC[C@H](O)c1ccc(O)c(CO)c1` [Levalbuterol hydrochloride] showed a ThS net change of 422. Molecule `CCOc1ccc2nc(S(N)(=O)=O)sc2c1` [Ethoxzolamide] has a ThS net change of 428. `CCC1NC(=O)c2cc(S(N)(=O)=O)c(Cl)cc2N1` (stereo not shown) [Quinethazone] showed a ThS net change of 427.
